Laboratory results taken from patent US10294202B2, “Pyrrolidinones as herbicides” (FMC Corporation, priority 2013, dated 2019).
Like-named read-outs stand apart in the source and are kept apart here.

Tests used:
barnyardgrass [1] = assay: Test A pre-/postemergence herbicide test; assay type: in vivo, Echinochloa crus-galli; conditions: for pest or weed control at 125 g/ha / pest or weed control at 500 g/ha: Echinochloa crus-galli, 240 h, read-out: Plant response rating, Barnyardgrass
How it was run: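 Visual injury ratings, 0 = no effect, 100 = complete control, taken ~10 days after treatment against untreated greenhouse controls. Preemergence: directed soil spray onto seeded loam/sand pots. Postemergence: spray onto plants at one- to two-leaf stage, 2–10 cm tall.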

sedge, umbrella = assay: Test B flooded paddy test; assay type: in vivo, Cyperus difformis; conditions: Flood, scale of 0 to 100 where 0 is no effect and 100 is complete control
How it was run: (§1)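 Paddy-water application at a 3 cm flood, young plants having two leaves. Water level maintained; greenhouse, 13–15 days; visual 0–100 control rating.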

barnyardgrass [2] = assay: Test B flooded paddy test; assay type: in vivo, Echinochloa crus-galli; conditions: Flood, scale of 0 to 100 where 0 is no effect and 100 is complete control
How it was run: as §1

blackgrass = assay: Test C pre-/postemergence herbicide test; assay type: in vivo, Alopecurus myosuroides; conditions: Preemergence; for Plant response rating (scale of 0 to 100), Blackgrass: 250 g ai/ha
Description: (§2) Seeds of plant species selected from blackgrass (Alopecurus myosuroides), ryegrass, Italian (Italian ryegrass, Lolium multiflorum), wheat (winter wheat, Triticum aestivum), galium (catchweed bedstraw, Galium aparine), corn (Zea mays), crabgrass, large (large crabgrass, Digitaria sanguinalis), foxtail, giant (giant foxtail, Setaria faberii), johnsongrass (Sorghum halepense), lambsquarters (Chenopodium album), morningglory (Ipomoea coccinea), nutsedge, yellow (yellow nutsedge, Cyperus esculentus), pigweed (Amaranthus retroflexus), ragweed (common ragweed, Ambrosia elatior), soybean (Glycine max), barnyardgrass (Echinochloa crus-galli), oilseed rape (Brassica napus), waterhemp (common waterhemp, Amaranthus rudis), kochia (Kochia scoparia), oat, wild (wild oat, Avena fatua), surinam grass (Brachiaria decumbens), foxtail, green (green foxtail, Setaria viridis), goosegrass (Eleusine indica), bromegrass, downy (downy bromegrass, Bromus tectorum), nightshade (eastern black nightshade, Solanum ptycanthum), cocklebur (common cocklebur, Xanthium strumarium), cupgrass, woolly (woolly cupgrass, Eriochloa villosa), bermudagrass (Cynodon dactylon), sunflower, (common oilseed sunflower, Helianthus annuus), Russian thistle (Salsola kali) and velvetleaf (Abutilon theophrasti) were planted into a blend of loam soil and sand and treated preemergence with test chemicals formulated in a non-phytotoxic solvent mixture which included a surfactant. At the same time, plants selected from these crop and weed species and also barley (winter barley, Hordeum vulgare), […]), chickweed (common chickweed, Stellaria media), deadnettle (henbit deadnettle, Lamium amplexicaule), and canarygrass (littleseed canarygrass, Phalaris minor) were planted in pots containing Redi-Earth® planting medium (Scotts Company, 14111 Scottslawn Road, Marysville, Ohio 43041) comprising spaghnum peat moss, vermiculite, wetting agent and starter nutrients and treated with postemergence applications of test chemicals formulated in the same manner. Plants ranged in height from 2 to 18 cm (1- to 4-leaf stage) for postemergence treatments. Treated plants and controls were maintained in a greenhouse for 13 to 15 days, after which time all species were compared to controls and visually evaluated. Plant response ratings, summarized in Table C, are based on a scale of 0 to 100 where 0 is no effect and 100 is complete control. A dash (-) response means no test result.

wheat (winter wheat) = assay: Test C pre-/postemergence herbicide test; assay type: in vivo, Triticum aestivum; conditions: Preemergence
Description: as §2

corn = assay: Test C pre-/postemergence herbicide test; assay type: in vivo, Zea mays; conditions: Preemergence; for Plant response rating (scale of 0 to 100), Corn: 250 g ai/ha
Description: as §2

crabgrass, large = assay: Test C pre-/postemergence herbicide test; assay type: in vivo, Digitaria sanguinalis; conditions: Preemergence; for Plant response rating (scale of 0 to 100), Crabgrass, Large: 250 g ai/ha
Description: as §2

lambsquarters = assay: Test C pre-/postemergence herbicide test; assay type: in vivo, Chenopodium album; conditions: Preemergence; for Plant response rating (scale of 0 to 100), Lambsquarters: 250 g ai/ha
Description: as §2

soybean = assay: Test C pre-/postemergence herbicide test; assay type: in vivo, Glycine max; conditions: Preemergence
Description: as §2

velvetleaf = assay: Test C pre-/postemergence herbicide test; assay type: in vivo, Abutilon theophrasti; conditions: Preemergence
Description: as §2

[3] = post-emergence, Postemergence, 125 g ai/ha, 0 to 100 scale, 0 no effect, 100 complete control
[4] = post-emergence, Postemergence, 500 g ai/ha, 0 to 100 scale (0 no effect, 100 complete control)
[5] = pre-emergence, preemergence, 500 g ai/ha, 0 to 100 scale (0 no effect, 100 complete control)
[6] = Preemergence, 125 g ai/ha, visual rating on 0 to 100 scale (0 no effect, 100 complete control)
[7] = Postemergence, 125 g ai/ha, 0 to 100 scale, 0 no effect, 100 complete control
[8] = Postemergence, 500 g ai/ha, 0 to 100 scale (0 no effect, 100 complete control)
[9] = preemergence, 500 g ai/ha, 0 to 100 scale (0 no effect, 100 complete control)
[10] = 31 g ai/ha, scale 0 to 100, 0 is no effect and 100 is complete control
[11] = 125 g ai/ha, scale 0 to 100 (0 no effect, 100 complete control)
[12] = Postemergence, 125 g ai/ha, visual rating on 0 to 100 scale (0 no effect, 100 complete control), approx. 10 days
[13] = Preemergence, 125 g ai/ha, 0 to 100 scale where 0 is no effect and 100 is complete control
[14] = Preemergence, 500 g ai/ha, visual rating on 0 to 100 scale (0 no effect, 100 complete control)
[15] = 62 g ai/ha, scale 0 to 100 (0 no effect, 100 complete control)

O=C1NCC(c2ccccc2)C1(Br)C(=O)Nc1ccccc1F (stereo not shown) [Compound 93, 3-bromo-N-(2-fluorophenyl)-2-oxo-4-phenyl-3-pyrrolidinecarboxamide]
pest or weed control at 125 g/ha (barnyardgrass [1]; [3]): 10% | pest or weed control at 500 g/ha (barnyardgrass [1]; [4]): 60% | pest or weed control at 500 g/ha (barnyardgrass [1]; [5]): 90% | Barnyardgrass plant response rating (barnyardgrass [1]; [6]): 50

O=C1NCC(c2ccc(F)c(C(F)(F)F)c2)C1C(=O)Nc1cccc(F)c1F (racemic) [Compound 77]
Plant response rating, Barnyardgrass (barnyardgrass [1]; [7]): 70 | Plant response rating, Barnyardgrass (barnyardgrass [1]; [8]): 80 | Barnyardgrass plant response rating (barnyardgrass [1]; [6]): 80 | Plant response rating, Barnyardgrass (barnyardgrass [1]; [9]): 90 | Plant response rating, Sedge, Umbrella (sedge, umbrella; 250 g ai/ha): 0 | Plant response rating, Barnyardgrass (barnyardgrass [2]; 250 g ai/ha): 20 | Blackgrass plant response rating (blackgrass; [10]): 85 | Plant response rating, Blackgrass (blackgrass; 62 g ai/ha, scale 0 to 100): 85 | Plant response rating, Blackgrass (blackgrass; [11]): 85 | Plant response rating (scale of 0 to 100), Blackgrass (blackgrass): 95 | Wheat plant response rating (wheat (winter wheat); [10]): 0 | Plant response rating, Wheat (wheat (winter wheat); 62 g ai/ha, scale 0 to 100): 55 | Plant response rating, Wheat (wheat (winter wheat); [11]): 80 | Plant response rating (scale of 0 to 100), Wheat (wheat (winter wheat); 250 g ai/ha): 90 | Corn plant response rating (corn; [10]): 0 | Plant response rating, Corn (corn; 62 g ai/ha, scale 0 to 100): 20 | Plant response rating, Corn (corn; [11]): 55 | Plant response rating (scale of 0 to 100), Corn (corn): 70 | Crabgrass, Large plant response rating (crabgrass, large; [10]): 95 | Plant response rating, Crabgrass, Large (crabgrass, large; 62 g ai/ha, scale 0 to 100): 95 | Plant response rating, Crabgrass, Large (crabgrass, large; [11]): 98 | Plant response rating (scale of 0 to 100), Crabgrass, Large (crabgrass, large): 98 | Lambsquarters plant response rating (lambsquarters; [10]): 75 | Plant response rating, Lambsquarters (lambsquarters; 62 g ai/ha, scale 0 to 100): 85 | Plant response rating, Lambsquarters (lambsquarters; [11]): 85 | Plant response rating (scale of 0 to 100), Lambsquarters (lambsquarters): 98 | Soybean plant response rating (soybean; [10]): 0 | Plant response rating, Soybean (soybean; 62 g ai/ha, scale 0 to 100): 0 | Plant response rating, Soybean (soybean; [11]): 0 | Plant response rating (scale of 0 to 100), Soybean (soybean; 250 g ai/ha): 0 | Velvetleaf plant response rating (velvetleaf; [10]): 0 | Plant response rating, Velvetleaf (velvetleaf; 62 g ai/ha, scale 0 to 100): 25 | Plant response rating, Velvetleaf (velvetleaf; [11]): 30 | Plant response rating (scale of 0 to 100), Velvetleaf (velvetleaf; 250 g ai/ha): 40

CC(C)c1cccc(C2CNC(=O)C2C(=O)Nc2cccc(F)c2F)c1 (stereo not shown) [Compound 319]
Plant response rating, Barnyardgrass (barnyardgrass [1]; [12]): 90 | Plant response rating, Barnyardgrass (barnyardgrass [1]; [8]): 90 | Plant response rating, Barnyardgrass (barnyardgrass [1]; [13]): 90 | Barnyardgrass plant response rating (barnyardgrass [1]; [14]): 90 | Plant response rating, Sedge, Umbrella (sedge, umbrella; 500 g ai/ha): 0 | Plant response rating, Barnyardgrass (barnyardgrass [2]; 500 g ai/ha): 70 | Blackgrass plant response rating (blackgrass; [10]): 40 | Blackgrass plant response rating (blackgrass; [15]): 0 | Plant response rating, Blackgrass (blackgrass; 125 g ai/ha, scale 0 to 100): 30 | Plant response rating (scale of 0 to 100), Blackgrass (blackgrass): 80 | Wheat plant response rating (wheat (winter wheat); [15]): 0 | Plant response rating, Wheat (wheat (winter wheat); 125 g ai/ha, scale 0 to 100): 10 | Corn plant response rating (corn; [10]): 0 | Corn plant response rating (corn; [15]): 30 | Plant response rating, Corn (corn; 125 g ai/ha, scale 0 to 100): 60 | Plant response rating (scale of 0 to 100), Corn (corn): 65 | Crabgrass, Large plant response rating (crabgrass, large; [10]): 95 | Crabgrass, Large plant response rating (crabgrass, large; [15]): 98 | Plant response rating, Crabgrass, Large (crabgrass, large; 125 g ai/ha, scale 0 to 100): 95 | Plant response rating (scale of 0 to 100), Crabgrass, Large (crabgrass, large): 98 | Lambsquarters plant response rating (lambsquarters; [10]): 60 | Lambsquarters plant response rating (lambsquarters; [15]): 65 | Plant response rating, Lambsquarters (lambsquarters; 125 g ai/ha, scale 0 to 100): 65 | Plant response rating (scale of 0 to 100), Lambsquarters (lambsquarters): 75 | Soybean plant response rating (soybean; [15]): 0 | Plant response rating, Soybean (soybean; 125 g ai/ha, scale 0 to 100): 0 | Velvetleaf plant response rating (velvetleaf; [15]): 20 | Plant response rating, Velvetleaf (velvetleaf; 125 g ai/ha, scale 0 to 100): 45

O=C1NCC(c2cccc(C(F)(F)F)c2)C1C(=O)Nc1ccc(F)c(F)c1F (stereo not shown) [Compound 345]
Plant response rating, Barnyardgrass (barnyardgrass [1]; [12]): 70 | Plant response rating, Barnyardgrass (barnyardgrass [1]; [8]): 90 | Plant response rating, Barnyardgrass (barnyardgrass [1]; [13]): 80 | Barnyardgrass plant response rating (barnyardgrass [1]; [14]): 90 | Plant response rating, Sedge, Umbrella (sedge, umbrella; 1000 g ai/ha): 0 | Plant response rating, Barnyardgrass (barnyardgrass [2]; 1000 g ai/ha): 0 | Blackgrass plant response rating (blackgrass; [10]): 50 | Blackgrass plant response rating (blackgrass; [15]): 50 | Plant response rating, Blackgrass (blackgrass; 125 g ai/ha, scale 0 to 100): 90 | Plant response rating (scale of 0 to 100), Blackgrass (blackgrass): 90 | Wheat plant response rating (wheat (winter wheat); [15]): 10 | Plant response rating, Wheat (wheat (winter wheat); 125 g ai/ha, scale 0 to 100): 70 | Corn plant response rating (corn; [10]): 40 | Corn plant response rating (corn; [15]): 35 | Plant response rating, Corn (corn; 125 g ai/ha, scale 0 to 100): 65 | Plant response rating (scale of 0 to 100), Corn (corn): 85 | Crabgrass, Large plant response rating (crabgrass, large; [10]): 95 | Crabgrass, Large plant response rating (crabgrass, large; [15]): 98 | Plant response rating, Crabgrass, Large (crabgrass, large; 125 g ai/ha, scale 0 to 100): 95 | Plant response rating (scale of 0 to 100), Crabgrass, Large (crabgrass, large): 98 | Lambsquarters plant response rating (lambsquarters; [10]): 100 | Lambsquarters plant response rating (lambsquarters; [15]): 75 | Plant response rating, Lambsquarters (lambsquarters; 125 g ai/ha, scale 0 to 100): 85 | Plant response rating (scale of 0 to 100), Lambsquarters (lambsquarters): 85 | Soybean plant response rating (soybean; [15]): 0 | Plant response rating, Soybean (soybean; 125 g ai/ha, scale 0 to 100): 5 | Velvetleaf plant response rating (velvetleaf; [15]): 0 | Plant response rating, Velvetleaf (velvetleaf; 125 g ai/ha, scale 0 to 100): 25

O=C1NCC(Br)(c2ccccc2)C1C(=O)Nc1ccccc1F (stereo not shown) [Compound 92, 4-bromo-N-(2-fluorophenyl)-2-oxo-4-phenyl-3-pyrrolidinecarboxamide]
pest or weed control at 125 g/ha (barnyardgrass [1]; [3]): 20% | pest or weed control at 500 g/ha (barnyardgrass [1]; [4]): 70% | pest or weed control at 500 g/ha (barnyardgrass [1]; [5]): 90% | Barnyardgrass plant response rating (barnyardgrass [1]; [6]): 60

O=C1NCC(c2ccc(F)c(F)c2)C1C(=O)Nc1ccccc1C(F)(F)F (racemic) [Compound 6]
Plant response rating, Barnyardgrass (barnyardgrass [1]; [7]): 40 | Plant response rating, Barnyardgrass (barnyardgrass [1]; [8]): 80 | Barnyardgrass plant response rating (barnyardgrass [1]; [6]): 50 | Plant response rating, Barnyardgrass (barnyardgrass [1]; [9]): 80

O=C1NCC(c2cccc(C(F)F)c2)C1C(=O)Nc1ccccc1F (racemic) [Compound 210]
Plant response rating, Barnyardgrass (barnyardgrass [1]; 125 g ai/ha, visual rating, 0 to 100 scale, 0 no effect, 100 complete control, approximately 10 days, preemergence): 60 | Plant response rating, Barnyardgrass (barnyardgrass [1]; Postemergence, 125 g ai/ha, 0 to 100 scale, 0 is no effect, 100 is complete control): 80 | Barnyardgrass plant response rating (0 to 100 scale, 0 is no effect, 100 is complete control) (barnyardgrass [1]; Postemergence, 500 g ai/ha): 90 | Plant response rating, Barnyardgrass (barnyardgrass [1]; preemergence, 500 g ai/ha, 0 to 100 scale, 0 is no effect and 100 is complete control): 90
